In PubChem BioAssay (NCI):
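Cultured in 96-well plates, cells were exposed to test compound for 48 hours across five concentrations. TGI is the concentration that stops growth completely.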

Experiments:
Experiment in all cases: NCI-60 cell line screen, 48 h
786-0 renal = system: 786-0 renal
BT-549 breast = system: BT-549 breast
LOX IMVI melanoma = system: LOX IMVI melanoma
NCI-H460 lung = system: NCI-H460 lung
PC-3 prostate = system: PC-3 prostate
RXF 393 renal = system: RXF 393 renal
SNB-19 CNS = system: SNB-19 CNS
SNB-75 CNS = system: SNB-75 CNS
SW-620 colon = system: SW-620 colon
UO-31 renal = system: UO-31 renal

Measured: TGI

CC1(C)OC[C@@H](C[C@H](O)COCc2ccccc2)O1
> 100 µM: all assays above
